Results as given in patent US20210346383A1, “COMPOUNDS, COMPOSITIONS AND METHODS FOR TREATING OR PREVENTING HER-DRIVEN CANCERS” (Rain Therapeutics Inc., priority 2018, published 2021).
Read-outs that look alike come from different tables or passages of the source. Values belong to the compound of their own block, whether it stands above or below them.

Columns and labels:
[1] = test system: CALU-3 (ERBB2 amplification); test: cells; assay type: cell-based; conditions: Homo sapiens
[2] = test system: CUTO-14 (EGFR A767_V769dupASV); test: cells; conditions: CUTO14, read-out: Cellular Anti-Proliferative Assay IC50
[3] = test system: H-2170 (ERBB2 amplification); test: cells; assay type: cell-based; conditions: Homo sapiens
[4] = test system: PC9 brain metastasis model; conditions: cited from earlier work
[5] = test system: CUTO-17 (EGFR N771_H773dupNPH); test: cells; conditions: CUTO17, read-out: Cellular Anti-Proliferative Assay IC50
[6] = test system: H-1781 (ERBB2 p.G776Ins V_G/C); test: cells; assay type: cell-based
[7] = molecular target: Ba/F3 cells expressing HER2 P780_Y781insGSP (Homo sapiens, UniProt P04626, DUP778-780, cells depend on it); test: Ba/F3 growth inhibitory assay, HER2 exon 20 mutations; assay type: cell-based, murine; conditions: read-out: IC50, growth inhibition
Description: (§1) The murine pro-B cell line Ba/F3 (RCB0805) was obtained from RIKEN Bio Resource Center (Tsukuba, Japan). […] Several Ba/F3 lines which were established in the previous study were also used in this study.
(§2) Briefly, 2000 cells were seeded in each well of 96-well plates. Twenty-four hours later, DMSO or a TKI at indicated drug concentration were added, and the cells were cultured for additional 72 hours. A colorimetric assay was used to estimate the growth inhibition of each drug using the Cell Counting Kit-8 reagent (Dojindo Laboratories, Kumamoto, Japan). Each experiment was performed in triplicate.
(§3) HER2 A775_G776insYVMA, G776delinsVC, P780_Y781insGSP, YVMA+C805S (YVMACS) and VC+C805S (VCCS) mutations were introduced into Ba/F3 cells using retroviral vector.

[8] = molecular target: Ba/F3 cells expressing HER2 G776delinsVC (Homo sapiens, UniProt P04626, DELINS776-776VC, cells depend on it); test: as above; assay type: cell-based, murine; conditions: read-out: IC50, growth inhibition
Description: as §1, §2, §3

[9] = test system: CUTO-18 (EGFR S768_D770dupSVD); test: cells; conditions: read-out: Cellular Anti-Proliferative Assay IC50
[10] = molecular target: Ba/F3 cells expressing HER2 YVMA + C805S (YVMACS) (Homo sapiens, UniProt P04626, DUP772-775/C805S, cells depend on it); test: Ba/F3 growth inhibitory assay, HER2 exon 20 mutations; assay type: cell-based, murine; conditions: read-out: IC50, growth inhibition
Description: as §1, §2, §3

[11] = molecular target: Ba/F3 cells expressing HER2 A775_G776insYVMA (Homo sapiens, UniProt P04626, DUP772-775, cells depend on it); test: as above; assay type: cell-based, murine; conditions: read-out: IC50, growth inhibition
Description: as §1, §2, §3

[12] = molecular target: Ba/F3 cells expressing HER2 VC + C805S (VCCS) (Homo sapiens, UniProt P04626, DELINS776-776VC/C805S, cells depend on it); test: as above; assay type: cell-based, murine; conditions: read-out: IC50, growth inhibition
Description: as §1, §2, §3

[13] = molecular target: Ba/F3 cells expressing EGFR L858R + C797S (Homo sapiens, UniProt P00533, C797S/L858R, cells depend on it); test: Ba/F3 cell growth inhibition assay (Cell Counting Kit-8); assay type: cell-based, murine; conditions: 72 hours, read-out: IC50, growth inhibition
[14] = molecular target: Ba/F3 cells expressing EGFR Del 19 (Homo sapiens, UniProt P00533, DEL746-750, cells depend on it); test: as above; assay type: cell-based, murine; conditions: Ba/F3 EGFR Del 19; 72 hours; read-out: IC50, growth inhibition
[15] = molecular target: Ba/F3 cells expressing EGFR L858R + T790M + C797S (Homo sapiens, UniProt P00533, T790M/C797S/L858R, cells depend on it); test: as above; assay type: cell-based, murine; conditions: 72 hours, read-out: IC50, growth inhibition
[16] = molecular target: Ba/F3 cells expressing EGFR D770insSVD (Homo sapiens, UniProt P00533, DUP768-770, cells depend on it); test: as above; assay type: cell-based, murine; conditions: 72 hours, read-out: IC50, growth inhibition
[17] = molecular target: Ba/F3 cells expressing EGFR Del 19 + C797S (Homo sapiens, UniProt P00533, DEL746-750/C797S, cells depend on it); test: as above; assay type: cell-based, murine; conditions: Ba/F3 EGFR Del 19 + C797S; 72 hours; read-out: IC50, growth inhibition
[18] = molecular target: Ba/F3 cells expressing EGFR Del 19 + T790M + C797S (Homo sapiens, UniProt P00533, DEL746-750/T790M/C797S, cells depend on it); test: as above; assay type: cell-based, murine; conditions: Ba/F3 EGFR Del 19 + T790M + C797S; 72 hours; read-out: IC50, growth inhibition
[19] = molecular target: Ba/F3 cells expressing EGFR A763insFQEA (Homo sapiens, UniProt P00533, INS763FQEA, cells depend on it); test: as above; assay type: cell-based, murine; conditions: 72 hours, read-out: IC50, growth inhibition
[20] = molecular target: Ba/F3 cells expressing EGFR H773insH (Homo sapiens, UniProt P00533, DUP773-773, cells depend on it); test: as above; assay type: cell-based, murine; conditions: 72 hours, read-out: IC50, growth inhibition
[21] = molecular target: Ba/F3 cells expressing EGFR H773insNPH (Homo sapiens, UniProt P00533, DUP771-773, cells depend on it); test: as above; assay type: cell-based, murine; conditions: 72 hours, read-out: IC50, growth inhibition
[22] = molecular target: Ba/F3 cells expressing EGFR V769insASV (Homo sapiens, UniProt P00533, DUP767-769, cells depend on it); test: as above; assay type: cell-based, murine; conditions: 72 hours, read-out: IC50, growth inhibition
[23] = molecular target: Ba/F3 cells expressing EGFR L858R (Homo sapiens, UniProt P00533, L858R, cells depend on it); test: as above; assay type: cell-based, murine; conditions: 72 hours, read-out: IC50, growth inhibition
[24] = test system: H1975-luc human NSCLC cells, intracranial; conditions: cited from earlier work
[25] = 10 mg/kg and 25 mg/kg once daily, 49-day treatment

Sequence of Ba/F3 cells expressing HER2 VC + C805S (VCCS) (P04626 with tags, fused parts or gaps DELINS776-776VC/C805S): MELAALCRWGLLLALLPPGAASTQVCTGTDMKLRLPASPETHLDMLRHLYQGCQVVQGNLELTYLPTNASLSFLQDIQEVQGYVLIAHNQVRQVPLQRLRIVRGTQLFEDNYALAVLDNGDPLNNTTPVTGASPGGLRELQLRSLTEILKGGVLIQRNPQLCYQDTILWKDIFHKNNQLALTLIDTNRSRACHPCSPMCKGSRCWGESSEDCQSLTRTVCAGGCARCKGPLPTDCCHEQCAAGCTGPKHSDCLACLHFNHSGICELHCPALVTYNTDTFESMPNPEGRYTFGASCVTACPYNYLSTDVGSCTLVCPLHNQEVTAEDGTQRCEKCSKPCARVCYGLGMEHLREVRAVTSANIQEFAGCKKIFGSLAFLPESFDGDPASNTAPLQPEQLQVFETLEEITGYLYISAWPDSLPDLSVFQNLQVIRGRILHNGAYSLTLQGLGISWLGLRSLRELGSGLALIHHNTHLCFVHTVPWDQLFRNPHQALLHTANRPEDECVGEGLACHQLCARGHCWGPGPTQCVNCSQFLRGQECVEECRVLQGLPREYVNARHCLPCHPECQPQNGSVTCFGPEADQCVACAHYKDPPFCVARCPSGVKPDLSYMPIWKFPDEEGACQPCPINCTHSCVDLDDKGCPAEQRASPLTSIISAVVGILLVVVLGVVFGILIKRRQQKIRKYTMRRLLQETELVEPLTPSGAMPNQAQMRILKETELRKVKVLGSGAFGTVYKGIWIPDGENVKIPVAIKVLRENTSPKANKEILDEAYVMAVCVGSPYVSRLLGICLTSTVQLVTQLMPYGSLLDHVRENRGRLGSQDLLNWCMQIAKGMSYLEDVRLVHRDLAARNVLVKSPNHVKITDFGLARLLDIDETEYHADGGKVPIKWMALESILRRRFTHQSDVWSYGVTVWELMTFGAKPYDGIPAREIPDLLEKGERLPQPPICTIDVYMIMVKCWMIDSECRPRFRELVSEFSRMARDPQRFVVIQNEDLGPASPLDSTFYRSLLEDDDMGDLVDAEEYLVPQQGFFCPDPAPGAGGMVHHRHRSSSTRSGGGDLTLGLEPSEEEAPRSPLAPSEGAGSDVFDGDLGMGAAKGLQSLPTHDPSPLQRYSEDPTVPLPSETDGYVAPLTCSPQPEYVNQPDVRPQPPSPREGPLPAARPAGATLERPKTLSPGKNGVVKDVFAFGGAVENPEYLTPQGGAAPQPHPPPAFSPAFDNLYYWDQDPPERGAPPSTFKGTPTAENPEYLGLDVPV
Sequence of Ba/F3 cells expressing HER2 P780_Y781insGSP (P04626 with tags, fused parts or gaps DUP778-780): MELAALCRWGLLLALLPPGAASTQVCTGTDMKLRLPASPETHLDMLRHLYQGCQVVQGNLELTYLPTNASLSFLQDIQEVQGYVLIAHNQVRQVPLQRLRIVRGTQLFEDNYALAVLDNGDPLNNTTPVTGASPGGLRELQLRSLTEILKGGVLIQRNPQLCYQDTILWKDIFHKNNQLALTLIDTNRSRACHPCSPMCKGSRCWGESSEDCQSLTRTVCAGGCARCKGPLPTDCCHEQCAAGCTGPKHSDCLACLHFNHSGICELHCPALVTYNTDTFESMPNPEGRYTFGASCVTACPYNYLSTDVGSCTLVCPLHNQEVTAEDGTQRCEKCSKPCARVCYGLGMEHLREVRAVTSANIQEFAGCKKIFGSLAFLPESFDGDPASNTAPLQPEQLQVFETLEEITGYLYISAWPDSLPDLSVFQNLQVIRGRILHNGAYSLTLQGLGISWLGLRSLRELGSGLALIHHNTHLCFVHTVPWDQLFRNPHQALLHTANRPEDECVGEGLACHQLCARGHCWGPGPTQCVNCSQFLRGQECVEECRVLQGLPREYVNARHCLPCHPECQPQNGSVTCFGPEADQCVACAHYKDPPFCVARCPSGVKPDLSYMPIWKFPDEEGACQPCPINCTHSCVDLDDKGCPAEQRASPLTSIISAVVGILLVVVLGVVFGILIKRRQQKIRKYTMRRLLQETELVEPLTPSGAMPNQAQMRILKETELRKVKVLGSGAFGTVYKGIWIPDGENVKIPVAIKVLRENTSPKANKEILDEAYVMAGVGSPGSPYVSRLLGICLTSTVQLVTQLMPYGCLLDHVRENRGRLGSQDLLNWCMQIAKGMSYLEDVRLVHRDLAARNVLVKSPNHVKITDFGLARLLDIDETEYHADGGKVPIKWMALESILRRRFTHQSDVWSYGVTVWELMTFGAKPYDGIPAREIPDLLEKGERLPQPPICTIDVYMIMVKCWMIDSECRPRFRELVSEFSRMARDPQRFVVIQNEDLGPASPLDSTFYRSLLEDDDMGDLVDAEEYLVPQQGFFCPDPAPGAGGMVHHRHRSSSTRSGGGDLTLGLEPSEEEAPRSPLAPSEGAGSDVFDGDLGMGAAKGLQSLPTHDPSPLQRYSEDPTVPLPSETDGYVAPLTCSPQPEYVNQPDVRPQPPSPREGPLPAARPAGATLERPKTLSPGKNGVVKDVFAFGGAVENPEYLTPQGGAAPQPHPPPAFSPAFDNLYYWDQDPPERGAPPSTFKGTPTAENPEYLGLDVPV
Sequence of Ba/F3 cells expressing HER2 A775_G776insYVMA (P04626 with tags, fused parts or gaps DUP772-775): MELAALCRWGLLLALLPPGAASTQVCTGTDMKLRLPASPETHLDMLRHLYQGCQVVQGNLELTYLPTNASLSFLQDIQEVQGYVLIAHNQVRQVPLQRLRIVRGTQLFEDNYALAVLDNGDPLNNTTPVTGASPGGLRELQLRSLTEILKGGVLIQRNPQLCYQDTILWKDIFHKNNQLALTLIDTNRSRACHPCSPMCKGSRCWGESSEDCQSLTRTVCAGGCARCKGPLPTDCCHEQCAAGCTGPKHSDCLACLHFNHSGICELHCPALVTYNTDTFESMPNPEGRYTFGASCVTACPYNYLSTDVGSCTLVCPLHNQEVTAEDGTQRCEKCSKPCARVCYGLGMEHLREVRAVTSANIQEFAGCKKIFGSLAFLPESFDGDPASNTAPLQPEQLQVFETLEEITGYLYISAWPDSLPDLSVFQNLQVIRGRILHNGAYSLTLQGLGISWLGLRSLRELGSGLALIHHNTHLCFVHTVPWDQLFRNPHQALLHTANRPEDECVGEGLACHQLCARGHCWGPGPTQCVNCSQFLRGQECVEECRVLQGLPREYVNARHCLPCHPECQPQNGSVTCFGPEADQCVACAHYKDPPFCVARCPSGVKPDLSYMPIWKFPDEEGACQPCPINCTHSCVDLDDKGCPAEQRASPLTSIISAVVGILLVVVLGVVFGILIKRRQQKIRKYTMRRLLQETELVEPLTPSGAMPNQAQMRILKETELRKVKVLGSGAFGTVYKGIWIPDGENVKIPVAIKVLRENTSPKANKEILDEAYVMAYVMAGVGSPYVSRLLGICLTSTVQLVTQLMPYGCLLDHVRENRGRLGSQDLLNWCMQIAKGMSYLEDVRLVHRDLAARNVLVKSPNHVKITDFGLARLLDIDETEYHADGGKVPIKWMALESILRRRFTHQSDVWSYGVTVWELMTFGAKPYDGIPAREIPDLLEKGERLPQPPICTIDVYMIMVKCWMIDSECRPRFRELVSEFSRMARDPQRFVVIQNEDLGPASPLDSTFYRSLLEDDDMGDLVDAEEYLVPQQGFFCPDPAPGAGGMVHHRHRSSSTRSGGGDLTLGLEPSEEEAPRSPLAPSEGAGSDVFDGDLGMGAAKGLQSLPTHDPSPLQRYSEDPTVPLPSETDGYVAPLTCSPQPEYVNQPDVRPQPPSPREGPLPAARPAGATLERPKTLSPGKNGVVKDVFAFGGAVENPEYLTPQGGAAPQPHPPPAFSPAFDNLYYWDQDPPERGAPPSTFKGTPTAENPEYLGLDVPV
Sequence of Ba/F3 cells expressing HER2 YVMA + C805S (YVMACS) (P04626 with tags, fused parts or gaps DUP772-775/C805S): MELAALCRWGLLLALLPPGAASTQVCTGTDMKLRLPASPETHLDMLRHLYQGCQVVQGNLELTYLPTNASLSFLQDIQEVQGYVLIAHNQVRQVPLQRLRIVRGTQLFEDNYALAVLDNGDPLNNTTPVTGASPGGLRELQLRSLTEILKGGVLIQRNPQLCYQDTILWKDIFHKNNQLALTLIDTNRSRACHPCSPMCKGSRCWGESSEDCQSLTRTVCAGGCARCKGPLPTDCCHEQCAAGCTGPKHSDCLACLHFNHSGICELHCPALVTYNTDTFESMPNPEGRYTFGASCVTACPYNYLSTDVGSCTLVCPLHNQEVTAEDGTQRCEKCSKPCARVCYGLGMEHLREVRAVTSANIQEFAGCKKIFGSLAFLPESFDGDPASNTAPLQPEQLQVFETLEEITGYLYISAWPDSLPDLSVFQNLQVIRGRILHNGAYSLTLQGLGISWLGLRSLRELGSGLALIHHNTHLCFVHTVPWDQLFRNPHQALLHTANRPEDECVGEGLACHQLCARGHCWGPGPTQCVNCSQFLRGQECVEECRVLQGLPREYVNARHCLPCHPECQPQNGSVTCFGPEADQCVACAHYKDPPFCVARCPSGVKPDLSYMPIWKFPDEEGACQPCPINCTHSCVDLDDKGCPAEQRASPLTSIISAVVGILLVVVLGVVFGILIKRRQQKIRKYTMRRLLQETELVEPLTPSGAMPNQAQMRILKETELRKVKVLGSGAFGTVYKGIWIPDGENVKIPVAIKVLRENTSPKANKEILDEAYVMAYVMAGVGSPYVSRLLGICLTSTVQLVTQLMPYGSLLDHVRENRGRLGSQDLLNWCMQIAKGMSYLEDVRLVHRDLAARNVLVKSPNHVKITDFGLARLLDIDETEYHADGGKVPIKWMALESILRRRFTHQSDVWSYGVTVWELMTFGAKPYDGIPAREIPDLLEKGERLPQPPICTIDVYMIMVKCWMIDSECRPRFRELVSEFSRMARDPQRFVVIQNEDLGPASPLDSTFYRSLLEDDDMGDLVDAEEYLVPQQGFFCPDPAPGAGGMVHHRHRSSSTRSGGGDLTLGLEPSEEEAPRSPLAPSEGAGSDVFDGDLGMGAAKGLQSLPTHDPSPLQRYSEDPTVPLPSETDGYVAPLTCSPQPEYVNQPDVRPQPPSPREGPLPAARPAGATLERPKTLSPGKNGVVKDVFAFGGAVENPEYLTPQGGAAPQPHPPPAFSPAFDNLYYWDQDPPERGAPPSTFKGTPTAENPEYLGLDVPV

Compound: C=CC(=O)Nc1cc(Nc2nccc(-c3cn(C)c4ccccc34)n2)c(OC)cc1N(C)CCN(C)C [Osimertinib, N-(2-{2-dimethylaminoethyl-methylamino}-4-methoxy-5-{[4-(1-methylindol-3-yl)pyrimidin-2-yl]amino}phenyl)prop-2-enamide]
- IC50 ([1]; CALU-3, ERBB2 amplification, normoxic conditions, read-out: Cellular Anti-Proliferative Assay IC50): 188 nM
- IC50 [2]: 303 nM
- IC50 ([3]; NCI-H2170, H-2170, ERBB2 amplification, normoxic conditions, read-out: Cellular Anti-Proliferative Assay IC50): 113 nM
- tumor regression ([4]; 5 mg/kg QD, first three weeks): caused tumor regression, which was more transient
- tumor regression ([4]; 25 mg/kg QD): induced sustained tumor regression until study end at day 60
- IC50 [5]: 426 ± 3 nM
- IC50 ([6]; NCI-H1781, H-1781, ERBB2 p.G776Ins V_G/C, normoxic conditions, read-out: Cellular Anti-Proliferative Assay IC50): 406 nM
- GI50 [7]: 88.5 nM
- GI50 [8]: 7.23 nM
- IC50 [9]: 647 ± 3 nM
- GI50 [10]: > 1000 nM
- GI50 [11]: 68.3 nM
- GI50 [12]: > 1000 nM

- GI50 [13]: 7.1 nM
- GI50 [14]: < 0.457 nM
- GI50 [15]: > 1000 nM
- GI50 [16]: 27.9 nM
- GI50 [17]: 1.6 nM
- GI50 [18]: > 1000 nM
- GI50 [19]: 0.7 nM
- GI50 [7]: 1.03 nM
- GI50 [8]: 0.02 nM
- GI50 [20]: 22.8 nM
- GI50 [10]: 316 nM
- GI50 [21]: 2.2 nM
- GI50 [22]: 28 nM
- GI50 [11]: 0.64 nM
- GI50 [12]: 27.9 nM
- GI50 [23]: < 0.457 nM
Compound: C=CC(=O)N1CCC(Oc2cc3c(Nc4ccc(Cl)c(Cl)c4F)ncnc3cc2OC)CC1 [Poziotinib]

- IC50 ([1]; Calu-3, read-out: Cellular Anti-Proliferative Assay IC50): 31 nM
- GI50 [7]: 6.5 nM
- GI50 [8]: 2.05 nM
- GI50 [10]: 545 nM
- GI50 [11]: 8.08 nM
- GI50 [12]: 41.3 nM
Compound: CN(C)CC=CC(=O)Nc1cc2c(Nc3ccc(F)c(Cl)c3)ncnc2cc1O[C@H]1CCOC1 [Afatinib, N-[4-[(3-Chloro-4-fluorophenyl)amino]-7-[[(3S)-tetrahydro-3-furanyl]oxy]-6-quinazolinyl]-4(dimethylamino)-2-butenamide]
- IC50 ([3]; NCI-H2170, read-out: Cellular Anti-Proliferative Assay IC50): 11 nM
- IC50 ([6]; NCI-H1781, read-out: Cellular Anti-Proliferative Assay IC50): 66 nM

Compound: C=CC(=O)Nc1cc(Nc2nccc(-n3cc(CN(C)C)c(-c4ccccc4)n3)n2)c(OC)cc1N1CCOCC1 [YH25448]
- body weight [24, 25]: no obvious loss of the body weight
- intracranial tumor growth inhibition vs osimertinib [24, 25]: more effectively inhibited intracranial tumor growth than osimertinib
- intracranial tumor regression ([24]; H1975 xenograft model): showed intracranial tumor regression
